Read-outs that look alike come from different tables or passages of the source.
Tests used:
Gβ1γ2 = Gβ1γ2 (UniProt P54311+P63212); assay: Surface plasmon resonance direct binding to Gβ1γ2; set-up: made in house; host or cells: Sf9 insect cells (baculovirus); conditions: for kon: read-out: association rate constant (kon, ka); for koff: read-out: dissociation rate constant (koff, kd)
Excerpt: To understand the protein binding characteristics of compounds a surface plasmon resonance (SPR) method was developed for monitoring direct small molecule binding to G βγ subunits using a Reichert SPR instrument. In addition to binding affinity, binding kinetics can be obtained from this analysis. […] To obtain the data in herein, 3000 refractive index units (RIU) of Gβ1γ2 was immobilized to maximize detection of small molecule binding (Karlsson et al., 2006; Markgren et al., 2001; Rich et al., 2001) and compounds were injected at 75 μl/min and changes in bulk refractive index were accounted for in a reference flow cell. […] This method is used to analyze compound binding kinetics and calculate equilibrium binding constants to test the mechanisms of action and selectivity of various “hot spot” binding compounds.
Direct binding of “hot spot” binding small molecules was assessed using the Reichert SR7000 Surface Plasmon Resonance dual chamber instrument equipped with an autosampler (Reichert, Depew, N.Y.). To activate the sensor chip surface, a mixture of 0.1 M 1-ethyl-3-(3-dimethylaminopropyl) carbodiimide hydrochloride and 0.05 M N-hydroxysuccinimide was injected (flow rate 5 μl/min) over the sensor surface. Streptavidin (100 μg/ml; prepared in 20 mM sodium acetate buffer, pH 5.5) was coupled to the sensor chip surface followed by quenching the remaining activated carboxyl groups with 1 M ethanolamine, pH 8.5. bGβ1γ2 was conjugated to the streptavidin-coated chip in running buffer (50 mM HEPES, pH 7.6, 1 mM EDTA, 100 mM NaCl, 0.1% C12E10, and 1 mM dithiothreitol) to achieve 2000 micro-refractive index units. A second reference cell was treated similarly, but bGβ1γ2 was excluded. Direct binding of small molecules was tested out at room temperature with a flow rate of 75 μl/min. Compounds were prepared in running buffer and injected for 10 min followed by a dissociation phase of 10 min. The obtained sensorgrams were corrected for nonspecific background by running the same experiment in series over an identical sensor surface with immobilized streptavidin, blocked with biotin, without bGβγ. […] Best fit kinetic parameters were determined using kinetic titration model and ClampXP ver. 3.5, which accounts for incomplete dissociation between injections (Karisson et al., 2006).

[1] = test system: GFP-PHAkt translocation (PI3Kγ activation) in HL60 cells; assay: fMLP-dependent GFP-PH-Akt translocation in differentiated HL60 cells; assay type: cell-based, human; conditions: 10 μM compound; result in words
PI3Kγ = assay: Gβ1γ2-dependent activation of purified p101/p110 PI3Kγ; assay type: biochemical; conditions: for effect on Gβ1γ2-dependent activation of PI3Kγ: result in words
Experimental: (§1) Purified PLCβ2 (0.25 ng) was assayed in the presence (▴) or absence (▪) of 100 nM purified Gβ1γ2. […] Assays contained 10 ng of purified p101/p110 PI3Kγ heterodimer with or without 100 nM purified Gβ1γ2. Left panel: (▴) 100 nM Gβ1γ2 or (▪) no βγ. […] M119 or M201 and 25 nM purified GRK2 were added simultaneously to 250 nM biotinylated Gβ1γ2 (bGβ1γ2) immobilized on streptavidin agarose. GRK2 was detected with antibody to GRK2. Data are representative (mean ±SEM, except D) repeated at least three times each. […] 30 nM bGβ1γ2 was incubated with either 30 nM PLCβ2 or PLCβ3 in the presence or absence of M119 or M201 for 16 h at 4° C. before precipitation with avidin agarose and detection with PLCβ2,or Gβ antibodies. […] Same as 4E with PLCβ3.
(§2) Nevertheless, M119 and M201 were tested in in vitro reconstitution assays of Gβγ-dependent activation of PLCβ2, PLCβ3 and PI3Kγ and binding to GRK2. […] These are only two of multiple diverse compounds identified, indicating potential for multiple modes of Gβγ-dependent target modulation by these small molecules.

[2] = test system: opioid-induced antinociception in mice; conditions: M119 100 nmol i.c.v. with morphine i.c.v.; Bonacci et al., 2006; cited from earlier work
Gβγ-GRK2 interaction = target: T1, Gβγ-GRK2 interaction (UniProt P54311+P63212); assay: GRK2 binding to biotinylated Gβ1γ2 on streptavidin agarose
T1 construct: made in house; host or cells: bGβ1γ2: Sf9 insect cells
T1 sequence (P54311 whole entry): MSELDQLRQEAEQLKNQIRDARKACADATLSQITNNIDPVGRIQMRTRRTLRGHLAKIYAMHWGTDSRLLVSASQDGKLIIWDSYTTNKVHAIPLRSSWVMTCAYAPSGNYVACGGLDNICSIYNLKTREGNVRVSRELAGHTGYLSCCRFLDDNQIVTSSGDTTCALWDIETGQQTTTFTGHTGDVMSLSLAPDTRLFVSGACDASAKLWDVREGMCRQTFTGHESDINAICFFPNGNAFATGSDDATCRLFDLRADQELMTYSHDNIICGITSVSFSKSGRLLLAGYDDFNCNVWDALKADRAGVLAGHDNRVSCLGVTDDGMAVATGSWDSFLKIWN
T1 sequence (P63212 2-68 limits assumed): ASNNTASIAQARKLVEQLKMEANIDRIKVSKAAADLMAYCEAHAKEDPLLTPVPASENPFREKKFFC

[3] = test system: isoproterenol-induced heart failure in mice; assay: Isoproterenol mini-osmotic pump acute model of heart failure; assay type: in vivo, mouse; conditions: result in words
Experimental: Conscious echocardiography was performed on animals prior to sacrifice. % FS is a measure of cardiac contractility derived from end-diastolic and end-systolic diameters. […] Heart weight to body weight ratio (HW:BW) was assessed upon sacrifice of the animal. (n=7-8 per condition)
Immunoblot for GRK2 of equal amounts of total protein isolated from hearts of adult C57/B16 male mice following 1 week of either vehicle or Iso (30 mg/kg/day) delivered by miniosmotic pumps (Veh, . . . or Iso, . . . , respectively) and concurrent daily vehicle or M119 (100 mg/kg) daily injections ( . . . , Veh, or . . . , Cmpd, respectively).
Based on the positive cardiomyocyte data, the cardiac effects of M119 were tested in vivo. The NCI compound database and chemical library was originally assembled to investigate these compounds utilizing both a yeast high-throughput screening assay as well as in vivo compound delivery to mice for 1-2 weeks. […] Wild type mice were implanted with mini-osmotic pumps filled with either vehicle or the non-selective β-AR agonist isoproterenol. These pumps release a constant fluid volume, and 30 mg/kg/day of isoproterenol (Iso) has been used to attain pathologic cardiac hypertrophy and dysfunction in one week Immediately following mini-osmotic pump implantation of vehicle or Iso (30 mg/kg/day), mice from each group were injected intraperitoneal (IP) once daily with equal volumes of either vehicle or a moderate dose of M119 (100 mg/kg) for seven days. […] The Iso pumped animals indeed suffered a decrease of cardiac function coupled with pathologic hypertrophy.

PLCβ2 = assay: Gβ1γ2-dependent activation of purified PLCβ2; assay type: biochemical
Experimental: as §1
The ability of NSC119910 analogs to selectively modulate activation PLC-β2 and -β3 was analyzed. In this assay, PLC-β2 and PLC-β3 were purified and PLC enzymatic activity was measured in the presence or absence of purified βy and in the presence or absence of analog.
as §2

[4] = test system: carrageenan-induced paw edema in mice; assay: Carrageenan-induced paw edema and neutrophil abundance

Sequence of Gβ1γ2 (P54311 whole entry): as the sequence (P54311 whole entry) above
Sequence of Gβ1γ2 (P63212 2-68 limits assumed): as the sequence (P63212 2-68 limits assumed) above

In the case of `O=C(O)C1CCCCC1c1c2ccc(=O)c(O)c-2oc2c(O)c(O)ccc12` (centres unmarked) [Compound M119, cyclohexanecarboxylic acid, 2-(4,5,6-trihydroxy-3-oxo-3H-xanthen-9-yl)-(9cl)], the Kd (Gβ1γ2) is reported as 100 nM, the kon (Gβ1γ2; SPR) is reported as 2000 M⁻¹ s⁻¹ and the koff (Gβ1γ2; SPR) is reported as 0.0002 s⁻¹. The “effect on fMLP-dependent translocation of GFP-PHAkt to the membrane” value [1] was “inhibited”, the IC50 (PI3Kγ; Table 19, effector IC50, read-out: PI 3-Kg) was 8 µM and the “effect on Gβ1γ2-dependent activation of PI3Kγ” value (PI3Kγ) was “attenuated”. The “leftward shift / potentiation of morphine dose-response” value [2] was 10 fold, the IC50 (Gβγ-GRK2 interaction) was ~5 µM and the “effect on interstitial cardiac fibrosis” value ([3]; Iso 30 mg/kg/day pump, M119 100 mg/kg IP daily, seven days) was “reduction in interstitial cardiac fibrosis”. The “effect on cardiac function and morphology in Iso pumped animals” value ([3]; Iso 30 mg/kg/day pump, M119 100 mg/kg IP once daily, seven days) was “near normalization of cardiac function and morphology”, the “effect on GRK2 expression in the Iso HF model” value ([3]; M119 100 mg/kg IP daily) was “nearly normalized” and the “effect of compound alone on cardiac function or morphology” value ([3]; vehicle pump, M119 100 mg/kg IP daily) was “no effect”. The IC50 (PLCβ2; read-out: IC50 for attenuation of Gβ1γ2-dependent activation of PLCβ2) was 3000 nM.
`O=C(O)c1ccccc1-c1c2ccc(=O)c(O)c-2oc2c(O)c(O)ccc12` (racemic) [Gallein] showed a Kd (Gβ1γ2; SPR, read-out: Kd) of ~400 nM, a kon (Gβ1γ2; SPR) of 1130 ± 17 M⁻¹ s⁻¹ and a koff (Gβ1γ2; SPR) of 0.00043 s⁻¹. The “effect on fMLP-dependent translocation of GFP-PHAkt to the membrane” value [1] was “inhibited”, the “reduction of number of neutrophils in the edematous fluid” value ([4]; 100 mg/kg i.p., 2 h after carrageenan) was “approximately half” and the ED50 ([4]; Mus musculus, ip, read-out: ED50 for inhibiting paw edema) was ~20 mg/kg. For the same molecule, the “effect on carrageenan-induced paw edema” value ([4]; i.p. 1 h before carrageenan, gallein 100 mg/kg, indomethacin 2.5 mg/kg, result in words) was “reduced paw edema to levels comparable with that of indomethacin”, the “reduction of exudate volume” value ([4]; i.p. pretreatment, 2 h after carrageenan) was “approximately 75%” and the “reduction of paw swelling” value ([4]; oral gavage 30 mg/kg 1 h before carrageenan, 3 h after carrageenan) was 40%. The “effect on paw thickness in the absence of carrageenan” value ([4]; result in words) was “no effect”.
In the case of `O=C(O)C1CCCCC1c1c2ccc(=O)cc-2oc2cc(O)ccc12` (centres unmarked) [Compound M119B], the “effect on Gβ1γ2-dependent activation of PI3Kγ” value (PI3Kγ) is reported as “did not have effects”, the “effect on GRK2 binding to bGβ1γ2” value (Gβγ-GRK2 interaction; result in words) is reported as “did not have effects” and the “effect on Gβ1γ2-dependent activation of PLCβ2” value (PLCβ2; result in words) is reported as “did not have effects”.

— patent publication US8975259B2, “Compositions and methods for inhibiting G protein signaling” (University of Rochester, priority 2007, dated 2015)
